Assay results published in US7179943B2, “Bicyclic derivatives that modulate voltage-gated potassium channels and methods of use thereof” (Wyeth, priority 2004, dated 2007).
Structures can show the parent of a compound that is named as a salt.

Target: T1, human Kv1.1/Kvβ1 potassium ion channel complex (Homo sapiens, UniProt Q09470)
T1 construct: expressed in transfected cells; host or cells: Xenopus oocytes injected with cRNA
Assay: Xenopus oocytes current assay (inhibition of inactivation, voltage clamp)
Format: cell-based
Settings: Xenopus oocytes expressing hKv1.1/hKvβ1, relative to control bath solution
Method: The compounds of formula I were examined for their ability to inhibit the inactivation of the human Kv1.1/Kvβ1 potassium ion channel complex in vitro using electrophysiological current recordings on inactivating Kv1.1/Kvβ1 channels expressed in Xenopus oocytes. Xenopus oocytes were harvested from frogs under general anesthesia using aseptic techniques. Oocytes were treated with 2 mg/ml collagenase for 1–1.5 hr, defolliculated, and injected with 40 nL cRNA (a mixture of hky1.1 and hKvβ1) produced using standard molecular biological techniques (Sambrook, et al., 1989, Molecular Cloning: A Laboratory Manual). The concentration of hKv1.1/hKvp1 cRNA varies, but was generally about 50 ng/μL hKv1.1 and […] hKβ1.
Currents were recorded using standard voltage clamp amplifiers at room temperature. Recordings were performed in the bath solution “ND-96” containing 96 mM NaCl, 2 mM KCl, 1 mm CaCl2, 1 mM MgCl2, 10 mM HEPES and […] Gentamycin (pH=7.6). The pipette (electrode) solution generally consisted of […]. Electrodes were made from WPI TW150F-4 borosilicate glass (or equivalent) and typically had resistances of 0.5–1.5 Mohms. The standard current-voltage (IV) pulse protocol consisted of voltage steps from −60 mV to +50 mV, in 10 mV increments for 200 ms, at a frequency of one IV set per 2 minutes. Data were digitized and analyzed by standard software packages.
Solutions of the test compounds consisting of test compounds dissolved in bath solution were applied by bath perfusion using gravity or pump-driven flow. A minimum of 2 mL (10 times the bath volume) over 3 minutes were flowed for each compound concentration tested. Data were averaged across at least 3 cells tested for each concentration.
Test compounds were examined for their ability to inhibit the inactivation of the steady state portion of the IV curve.

T1 sequence (Q09470 whole entry, one chain of several): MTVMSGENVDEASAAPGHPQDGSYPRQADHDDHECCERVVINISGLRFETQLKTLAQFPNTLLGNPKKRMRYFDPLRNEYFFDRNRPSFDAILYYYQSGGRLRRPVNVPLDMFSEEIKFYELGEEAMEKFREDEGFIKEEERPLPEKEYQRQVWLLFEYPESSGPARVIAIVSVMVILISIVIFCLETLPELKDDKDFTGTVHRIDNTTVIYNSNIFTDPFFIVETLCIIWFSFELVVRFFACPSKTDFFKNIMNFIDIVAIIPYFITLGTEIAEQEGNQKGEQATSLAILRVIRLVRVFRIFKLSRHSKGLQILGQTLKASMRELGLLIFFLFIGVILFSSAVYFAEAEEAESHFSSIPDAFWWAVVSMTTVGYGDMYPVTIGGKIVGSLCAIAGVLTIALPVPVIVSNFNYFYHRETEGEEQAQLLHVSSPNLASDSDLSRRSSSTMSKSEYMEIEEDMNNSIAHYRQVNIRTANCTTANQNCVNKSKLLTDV

With `O=C(Nc1ccc(Cl)c(Cl)c1)C1C(=O)C2CCC(C2)C1=O` (stereo not shown) [Example 24] the “Percent Increase in Steady State Current Of human Kv1.1/Kvβ1 @ a concentration of 50 μM” value was 28%.

Same assay, conditions: Xenopus oocytes expressing hKv1.1/hKvβ1, relative to control bath solution, read-out: Percent Increase in Steady State Current Of human Kv1.1/Kvβ1 @ a concentration of 50 μM

In order of rising activation at 50 µM:
1. CC1(C)C2CC[C@@]1(C)C(=O)C(C(=O)Nc1ccc(Cl)cc1)C2=O (stereo partly drawn) [Example 19, (1R)-N-[4-chlorophenyl]-1,8,8-trimethyl-2,4-dioxobicyclo[3.2.1]octane-3-carboxamide]  14%
2. CC1(C)C2CC[C@@]1(C)C(=O)C(C(=O)Nc1cc(C(F)(F)F)cc(C(F)(F)F)c1)C2=O (stereo partly drawn) [Example 12, (1R)-N-[3,5-bis(trifluoromethyl)phenyl]-1,8,8-trimethyl-2,4-dioxobicyclo [3.2.1]octane-3-carboxamide]  22%
3. CC1(C)C2CC[C@]1(C)C(=O)C(C(=O)Nc1ccc(C(F)(F)F)cc1)C2=O (stereo partly drawn) [Example 8, (1S)-N-[4-(trifluoromethyl)phenyl]-1,8,8-trimethyl-2,4-dioxobicyclo[3.2.1] octane-3-carboxamide]  53%
4. CC1(C)C2CC1C(=O)C(C(=O)Nc1cccc(C(F)(F)F)c1)C2=O (stereo not shown) [Example 29, 6,6-Dimethyl-2,4-dioxo-N-[3-(trifluoromethyl)phenyl]bicyclo[3.1.1]heptane-3-carboxamide]  67%
5. O=C(Nc1cc(C(F)(F)F)cc(C(F)(F)F)c1)C1C(=O)C2CCC(CC2)C1=O (stereo not shown) [Example 37, N-[3,5-bis(trifluoromethyl)phenyl]-2,4-dioxobicyclo[3.2.2]nonane-3-carboxamide]  68%
6. CC1(C)C2CC1C(=O)C(C(=O)Nc1ccc(F)cc1)C2=O (stereo not shown) [Example 34, 6,6-Dimethyl-2,4-dioxo-N-(4-fluorophenyl)bicyclo[3.1.1]heptane-3-carboxamide]  94%
7. CC1(C)C2CC[C@@]1(C)C(=O)C(C(=O)Nc1ccc(C(F)(F)F)cc1)C2=O (stereo partly drawn) [Example 18, (1R)-N-[4-(trifluoromethyl)phenyl]-1,8,8-trimethyl-2,4-dioxobicyclo[3.2.1] octane-3-carboxamide]  96%
8. CC1(C)C2CC1C(=O)C(C(=O)Nc1cccc(Cl)c1)C2=O (stereo not shown) [Example 35, 6,6-Dimethyl-2,4-dioxo-N-(3-chlorophenyl)bicyclo[3.1.1]heptane-3-carboxamide]  107%
9. CC1(C)C2CC1C(=O)C(C(=O)Nc1ccc(F)c(Cl)c1)C2=O (stereo not shown) [Example 30, 6,6-Dimethyl-2,4-dioxo-N-(3-chloro-4-fluorophenyl)bicyclo[3.1.1]heptane-3-carboxamide]  124%
10. CC1(C)C2CC1C(=O)C(C(=O)Nc1ccc(Cl)cc1)C2=O (stereo not shown) [Example 36, 6,6-Dimethyl-2,4-dioxo-N-(4-chlorophenyl)bicyclo[3.1.1]heptane-3-carboxamide]  125%
11. CC1(C)C2CC1C(=O)C(C(=O)Nc1ccc(C(F)(F)F)cc1)C2=O (stereo not shown) [Example 28, 6,6-Dimethyl-2,4-dioxo-N-[4-(trifluoromethyl)phenyl]bicyclo[3.1.1]heptane-3-carboxamide]  190%
12. CC1(C)C2CC1C(=O)C(C(=O)Nc1ccc(F)c(C(F)(F)F)c1)C2=O (stereo not shown) [Example 31, 6,6-Dimethyl-2,4-dioxo-N-[4-fluoro-3 (trifluoromethyl)phenyl]bicyclo[3.1.1]heptane-3-carboxamide]  282%
13. CC1(C)C2CC1C(=O)C(C(=O)Nc1ccc(Cl)c(Cl)c1)C2=O (stereo not shown) [Example 32, 6,6-Dimethyl-2,4-dioxo-N-(3,4-dichlorophenyl)bicyclo[3.1.1]heptane-3-carboxamide]  311%
14. CC1(C)C2CC1C(=O)C(C(=O)Nc1cc(Cl)cc(Cl)c1)C2=O (stereo not shown) [Example 33, 6,6-Dimethyl-2,4-dioxo-N-(3,5-dichlorophenyl)bicyclo[3.1.1]heptane-3-carboxamide]  326%

Test system: not given
Assay: not given
Settings: not given

First: CC1(C)C2CC[C@@]1(C)C(=O)C(C(=O)Nc1ccc(C(F)(F)F)cc1)C2=O (stereo partly drawn) [Example 18, (1R)-N-[4-(trifluoromethyl)phenyl]-1,8,8-trimethyl-2,4-dioxobicyclo[3.2.1] octane-3-carboxamide]
Second: CC1(C)C2CC[C@]1(C)C(=O)C(C(=O)Nc1ccc(C(F)(F)F)cc1)C2=O (stereo partly drawn) [Example 8, (1S)-N-[4-(trifluoromethyl)phenyl]-1,8,8-trimethyl-2,4-dioxobicyclo[3.2.1] octane-3-carboxamide]
The melting point of the first is lower: 78 to 81 °C for the first, 81 to 83 °C for the second.

First: O=C(Nc1cc(C(F)(F)F)cc(C(F)(F)F)c1)C1C(=O)C2CCC(CC2)C1=O (stereo not shown) (as salt: sodium) [Example 37, N-[3,5-bis(trifluoromethyl)phenyl]-2,4-dioxobicyclo[3.2.2]nonane-3-carboxamide]
Second: CC1(C)C2CC[C@@]1(C)C(=O)C(C(=O)Nc1cc(C(F)(F)F)cc(C(F)(F)F)c1)C2=O (stereo partly drawn) [Example 12, (1R)-N-[3,5-bis(trifluoromethyl)phenyl]-1,8,8-trimethyl-2,4-dioxobicyclo [3.2.1]octane-3-carboxamide]
The melting point of the first is higher: 286 to 288 °C for the first, 68 to 71 °C for the second.

First: CC1(C)C2CC[C@@]1(C)C(=O)C(C(=O)Nc1ccc(Cl)cc1)C2=O (stereo partly drawn) [Example 19, (1R)-N-[4-chlorophenyl]-1,8,8-trimethyl-2,4-dioxobicyclo[3.2.1]octane-3-carboxamide]
Second: Cc1ccc(NC(=O)C2C(=O)C3CC[C@](C)(C2=O)C3(C)C)cc1 (stereo partly drawn) [Example 11, (1S)-N-[4-methylphenyl]-1,8,8-trimethyl-2,4-dioxobicyclo[3.2.1]octane-3-carboxamide]
The melting point of the first is higher: 88 to 90 °C for the first, 80 to 82 °C for the second.

First: CC1(C)C2CC[C@]1(C)C(=O)C(C(=O)Nc1cc(Cl)cc(Cl)c1)C2=O (stereo partly drawn) [Example 3, (1S)-N-(3,5-dichlorophenyl)-1,8,8-trimethyl-2,4-dioxobicyclo[3.2.1]octane-3-carboxamide]
Second: CC1(C)C2CC[C@@]1(C)C(=O)C(C(=O)Nc1ccc(Cl)c(Cl)c1)C2=O (stereo partly drawn) [Example 14, (1R)-N-(3,4-dichlorophenyl)-1,8,8-trimethyl-2,4-dioxobicyclo[3.2.1]octane-3-carboxamide]
The melting point of the first is higher: 112 to 114 °C for the first, 89 to 91 °C for the second.

First: O=C(Nc1ccc(C(F)(F)F)cc1)C1C(=O)C2CCC(C2)C1=O (stereo not shown) (as salt: sodium) [Example 26, N-[4-(trifluoromethyl)phenyl]-2,4-dioxobicyclo[3.2.1]octane-3-carboxamide]
Second: CC1(C)C2CC[C@@]1(C)C(=O)C(C(=O)Nc1cccc(C(F)(F)F)c1)C2=O (stereo partly drawn) [Example 17, (1R)-N-[3-(trifluoromethyl)phenyl]-1,8,8-trimethyl-2,4-dioxobicyclo[3.2.1] octane-3-carboxamide]
The melting point of the first is higher: 250 to 260 °C for the first, 66 to 68 °C for the second.

Compared with `CC1(C)C2CC[C@]1(C)C(=O)C(C(=O)Nc1ccc([N+](=O)[O-])cc1)C2=O` (stereo partly drawn) [Example 6, (1S)-N-(4-nitrophenyl)-1,8,8-trimethyl-2,4-dioxobicyclo[3.2.1]octane-3-carboxamide], `CC1(C)C2CC[C@]1(C)C(=O)C(C(=O)Nc1cccc([N+](=O)[O-])c1)C2=O` (stereo partly drawn) [Example 5, (1S)-N-(3-nitrophenyl)-1,8,8-trimethyl-2,4-dioxobicyclo[3.2.1]octane-3-carboxamide] is lower in melting point: 170 to 172 °C for the first, 100 to 102 °C for the second.

In the case of `CC1(C)C2CC[C@]1(C)C(=O)C(C(=O)Nc1ccc(Cl)c(C(F)(F)F)c1)C2=O` (stereo partly drawn) [Example 7, (1S)-N-[4-chloro-3-(trifluoromethyl)phenyl]-1,8,8-trimethyl-2,4-dioxobicyclo [3.2.1]octane-3-carboxamide], the melting point is reported as 118 to 120 °C.

In the case of `CC1(C)C2CC1C(=O)C(C(=O)Nc1ccc(F)c(Cl)c1)C2=O` (stereo not shown) (as salt: sodium) [Example 30, 6,6-Dimethyl-2,4-dioxo-N-(3-chloro-4-fluorophenyl)bicyclo[3.1.1]heptane-3-carboxamide], the melting point is reported as > 230 °C.
With `CC1(C)C2CC1C(=O)C(C(=O)Nc1cccc(Cl)c1)C2=O` (stereo not shown) (as salt: sodium) [Example 35, 6,6-Dimethyl-2,4-dioxo-N-(3-chlorophenyl)bicyclo[3.1.1]heptane-3-carboxamide] the melting point was > 230 °C.
For `CC1(C)C2CC1C(=O)C(C(=O)Nc1ccc(Cl)c(Cl)c1)C2=O` (stereo not shown) (as salt: sodium) [Example 32, 6,6-Dimethyl-2,4-dioxo-N-(3,4-dichlorophenyl)bicyclo[3.1.1]heptane-3-carboxamide], the melting point was > 230 °C.
For `CC1(C)C2CC1C(=O)C(C(=O)Nc1ccc(Cl)cc1)C2=O` (stereo not shown) (as salt: sodium) [Example 36, 6,6-Dimethyl-2,4-dioxo-N-(4-chlorophenyl)bicyclo[3.1.1]heptane-3-carboxamide], the melting point was > 230 °C.
For `CC1(C)C2CC1C(=O)C(C(=O)Nc1ccc(F)c(C(F)(F)F)c1)C2=O` (stereo not shown) (as salt: sodium) [Example 31, 6,6-Dimethyl-2,4-dioxo-N-[4-fluoro-3 (trifluoromethyl)phenyl]bicyclo[3.1.1]heptane-3-carboxamide], the melting point was > 230 °C.
With `CC1(C)C2CC1C(=O)C(C(=O)Nc1cc(Cl)cc(Cl)c1)C2=O` (stereo not shown) (as salt: sodium) [Example 33, 6,6-Dimethyl-2,4-dioxo-N-(3,5-dichlorophenyl)bicyclo[3.1.1]heptane-3-carboxamide] the melting point was > 230 °C.
With `CC1(C)C2CC1C(=O)C(C(=O)Nc1ccc(C(F)(F)F)cc1)C2=O` (stereo not shown) (as salt: sodium) [Example 28, 6,6-Dimethyl-2,4-dioxo-N-[4-(trifluoromethyl)phenyl]bicyclo[3.1.1]heptane-3-carboxamide] the melting point was > 230 °C.
In the case of `CC1(C)C2CC1C(=O)C(C(=O)Nc1cccc(C(F)(F)F)c1)C2=O` (stereo not shown) (as salt: sodium) [Example 29, 6,6-Dimethyl-2,4-dioxo-N-[3-(trifluoromethyl)phenyl]bicyclo[3.1.1]heptane-3-carboxamide], the melting point is reported as > 230 °C.
With `CC1(C)C2CC1C(=O)C(C(=O)Nc1ccc(F)cc1)C2=O` (stereo not shown) (as salt: sodium) [Example 34, 6,6-Dimethyl-2,4-dioxo-N-(4-fluorophenyl)bicyclo[3.1.1]heptane-3-carboxamide] the melting point was > 230 °C.
